Data: patent publication US12496301B2, “Use of androgen receptor degrader for the treatment of spinal and bulbar muscular atrophy” (Arvinas Operations, Inc., priority 2023, dated 2025)
pEC50: −log10 of the molar value. “Also recorded” adds a separate entry of the source.

Columns and labels:
AR = molecular target: T1, AR (Homo sapiens, UniProt P10275); assay: AR agonism assay in MDA-MB-453 ARE-luc reporter cells in the presence of pomalidomide; format: cell-based; details: MDA-MB-453 AR luciferase reporter, with pomalidomide
T1 sequence (P10275 1-920 Q868H): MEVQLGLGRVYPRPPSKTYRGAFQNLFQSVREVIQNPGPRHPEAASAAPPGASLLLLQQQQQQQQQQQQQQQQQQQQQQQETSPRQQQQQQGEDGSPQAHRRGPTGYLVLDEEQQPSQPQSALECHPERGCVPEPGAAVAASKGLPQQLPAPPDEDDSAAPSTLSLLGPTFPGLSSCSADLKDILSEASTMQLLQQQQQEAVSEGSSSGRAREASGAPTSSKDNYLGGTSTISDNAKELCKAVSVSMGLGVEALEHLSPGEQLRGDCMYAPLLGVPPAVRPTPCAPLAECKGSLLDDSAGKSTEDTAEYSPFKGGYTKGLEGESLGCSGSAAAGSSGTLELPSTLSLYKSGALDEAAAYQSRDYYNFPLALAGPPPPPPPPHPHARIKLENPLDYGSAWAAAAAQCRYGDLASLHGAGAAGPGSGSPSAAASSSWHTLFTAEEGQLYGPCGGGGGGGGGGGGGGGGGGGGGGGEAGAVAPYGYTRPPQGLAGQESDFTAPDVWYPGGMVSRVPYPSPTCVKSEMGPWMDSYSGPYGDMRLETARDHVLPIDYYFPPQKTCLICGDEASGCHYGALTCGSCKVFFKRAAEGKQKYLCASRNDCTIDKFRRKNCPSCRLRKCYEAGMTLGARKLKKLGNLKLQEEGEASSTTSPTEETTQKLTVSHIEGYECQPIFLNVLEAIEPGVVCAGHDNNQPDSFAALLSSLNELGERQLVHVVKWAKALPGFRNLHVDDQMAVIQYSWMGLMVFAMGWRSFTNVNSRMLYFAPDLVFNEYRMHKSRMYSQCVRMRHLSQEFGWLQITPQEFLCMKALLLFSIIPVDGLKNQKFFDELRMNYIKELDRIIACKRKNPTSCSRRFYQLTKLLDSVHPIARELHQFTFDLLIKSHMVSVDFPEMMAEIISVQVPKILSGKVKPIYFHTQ
Experimental: The AR Responsive Luciferase Reporter MDA-MB-453 Stable Cell Line (MDA-MB-453 ARE-luc) was utilized for the AR agonism assay. These cells constitutively express the firefly luciferase reporter gene under the control of the androgen receptor response element. MDA-MB-453 ARE-luc cells were cultured in RPMI media (Thermo Fisher Scientific) supplemented with 5% charcoal-Dextran treated fetal bovine serum and were maintained at 37° C. in a 5% CO2 incubator. On day 0, the cells were seeded in 96-well plates at a density of 5×10^6 cells per plate. To prevent serum androgen interference during the AR agonism assay, the cells were cultured in phenol-free RPMI media without FBS. On day 1, the cells were treated with the compounds to establish concentration-response curves (CRCs). The compounds were administered at a top concentration of 300 nM with half-log dilutions. The synthetic AR agonist R1881 served as a positive control, with a top concentration of 30 nM and half-log dilutions. E3 ligase inhibitor pomalidomide was included in each well alongside the compounds at a concentration tenfold higher than that of the treated compounds. On day 2, the culture medium was removed, and luminescence data were obtained using the Bright Glo Assay (Promega, Catalog No. E2620) with 50 μL of Bright Glo buffer per well. Luminescence signals were recorded using a plate reader, and the agonism effect was calculated as a percentage using the formula: Agonism effect (%)=(Luminescence signal of compound/Maximum signal of R1881 at 30 nM)*100.

endogenous mouse AR = molecular target: T2, endogenous mouse AR (Mus musculus, UniProt P19091); assay: Endogenous mouse AR degradation in muscle of hAR100Q mice, capillary immunoassay; format: in vivo
T2 construct: from tissue; host or cells: mouse LABC muscle (C57Bl/6 and hAR100Q mice); quadriceps (hAR100Q mice)
T2 sequence (P19091 1-899): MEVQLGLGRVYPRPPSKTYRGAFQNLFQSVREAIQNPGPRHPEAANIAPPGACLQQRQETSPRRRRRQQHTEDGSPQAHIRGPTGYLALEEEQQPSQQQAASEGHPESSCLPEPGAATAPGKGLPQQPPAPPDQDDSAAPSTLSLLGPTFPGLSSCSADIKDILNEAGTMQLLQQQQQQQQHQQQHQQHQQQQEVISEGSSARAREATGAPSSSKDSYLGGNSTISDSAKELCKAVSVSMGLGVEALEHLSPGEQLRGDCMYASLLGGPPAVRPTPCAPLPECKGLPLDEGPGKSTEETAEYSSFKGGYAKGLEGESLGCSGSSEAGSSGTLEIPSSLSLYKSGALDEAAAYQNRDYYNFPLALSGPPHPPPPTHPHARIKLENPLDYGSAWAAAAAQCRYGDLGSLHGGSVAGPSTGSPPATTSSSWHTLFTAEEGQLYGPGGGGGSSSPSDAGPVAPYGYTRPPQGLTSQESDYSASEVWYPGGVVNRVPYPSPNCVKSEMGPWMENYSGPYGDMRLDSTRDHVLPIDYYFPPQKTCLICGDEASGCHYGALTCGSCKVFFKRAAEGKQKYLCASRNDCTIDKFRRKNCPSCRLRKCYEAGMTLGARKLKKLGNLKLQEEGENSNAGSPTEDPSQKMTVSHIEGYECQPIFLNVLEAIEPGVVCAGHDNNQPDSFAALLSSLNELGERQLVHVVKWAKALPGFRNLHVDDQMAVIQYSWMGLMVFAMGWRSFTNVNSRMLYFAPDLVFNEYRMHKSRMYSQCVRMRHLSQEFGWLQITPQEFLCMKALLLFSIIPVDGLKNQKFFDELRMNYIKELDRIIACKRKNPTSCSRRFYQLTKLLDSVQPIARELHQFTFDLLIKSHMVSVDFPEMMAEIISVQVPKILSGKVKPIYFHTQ
Experimental: (§1) Mouse endogenous AR, human AR100Q, and high molecular weight hAR100Q from hAR100Q mice were quantified by capillary immunoassay. Tissue lysates were prepared as described above using antibodies to AR and resolved by capillary electrophoresis (ProteinSimple). High molecular weight AR was quantified as the area under the curve (AUC) from 300 to 600 kDa.
(§2) A parallel cohort of hAR100Q mice was maintained in order to evaluate AR degradation at the 11-week timepoint. hAR100Q mice in this tissue cohort were fed chow identical to the mice that underwent muscle strength and endurance tests and were euthanized at 11-weeks of age.

human AR100Q = molecular target: T3, human AR100Q (Homo sapiens, UniProt P10275, INS80QQQQQQQQQQQQQQQQQQQQQQQQQQQQQQQQQQQQQQQQQQQQQQQQQQQQQQQQQQQQQQQQQQQQQQQQQQQQQ); assay: hAR100Q (polyQ-AR) degradation in muscle of hAR100Q mice, capillary immunoassay; format: in vivo
T3 construct: full-length human AR harboring 100 CAG repeats in exon 1 (hAR100Q); from tissue; host or cells: LABC and quadriceps muscle of transgenic hAR100Q mice (C57BL/6J background, pCAGGS promoter)
T3 sequence (P10275 with tags, fused parts or gaps with the stated changes): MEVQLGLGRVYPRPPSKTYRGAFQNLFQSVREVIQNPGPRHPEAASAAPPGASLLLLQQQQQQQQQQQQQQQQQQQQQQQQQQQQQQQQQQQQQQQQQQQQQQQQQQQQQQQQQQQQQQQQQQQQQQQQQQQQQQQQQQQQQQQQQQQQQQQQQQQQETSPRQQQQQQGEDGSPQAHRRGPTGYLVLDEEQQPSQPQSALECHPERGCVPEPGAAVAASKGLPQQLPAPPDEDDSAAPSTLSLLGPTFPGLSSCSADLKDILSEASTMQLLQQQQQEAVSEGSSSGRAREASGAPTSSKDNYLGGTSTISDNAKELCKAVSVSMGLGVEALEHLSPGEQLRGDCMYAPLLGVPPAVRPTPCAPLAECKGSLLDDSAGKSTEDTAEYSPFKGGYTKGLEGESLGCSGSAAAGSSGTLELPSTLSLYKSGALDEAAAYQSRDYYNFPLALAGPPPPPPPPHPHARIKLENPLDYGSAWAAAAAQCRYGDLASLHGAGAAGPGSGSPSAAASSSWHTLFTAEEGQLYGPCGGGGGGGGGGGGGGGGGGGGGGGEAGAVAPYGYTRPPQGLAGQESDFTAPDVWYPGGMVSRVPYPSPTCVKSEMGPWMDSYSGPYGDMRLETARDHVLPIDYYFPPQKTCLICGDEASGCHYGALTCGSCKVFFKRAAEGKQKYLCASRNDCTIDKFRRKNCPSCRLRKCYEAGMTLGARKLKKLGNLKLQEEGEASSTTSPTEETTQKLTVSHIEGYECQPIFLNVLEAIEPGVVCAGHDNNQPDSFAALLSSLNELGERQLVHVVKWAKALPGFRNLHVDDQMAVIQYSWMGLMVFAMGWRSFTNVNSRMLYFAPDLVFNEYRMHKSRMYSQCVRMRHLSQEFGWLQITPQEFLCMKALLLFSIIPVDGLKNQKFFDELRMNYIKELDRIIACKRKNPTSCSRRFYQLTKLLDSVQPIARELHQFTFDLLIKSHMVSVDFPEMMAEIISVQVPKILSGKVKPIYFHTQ
Experimental: as §1, §2

Structure (SMILES): CC(C)N(CC1CCN(c2ncc(C(=O)N[C@H]3C(C)(C)[C@H](Oc4ccc(C#N)c(Cl)c4)C3(C)C)cn2)CC1)[C@H]1C[C@H](Oc2ccc3c(c2)C(=O)N(C2CCC(=O)NC2=O)C3=O)C1 (stereo partly drawn) [Compound A, N-((1r,3r)-3-(3-chloro-4-cyanophenoxy)-2,2,4,4-tetramethylcyclobutyl)-2-(4-((((1r,3r)-3-((2-(2,6-dioxopiperidin-3-yl)-1,3-dioxoisoindolin-5-yl)oxy)cyclobutyl)(isopropyl)amino)methyl)piperidin-1-yl)pyrimidine-5-carboxamide]
- agonism activity at Emax relative to R1881 (AR): < 40%
- pEC50 (AR; read-out: EC50, AR agonist activity): 7.16
- reduction of endogenous mouse (WT) AR in LABC vs vehicle (endogenous mouse AR; LABC, 11 weeks of age, chow approx. 15 mg/kg): 77%
- reduction of WT AR in quadriceps vs vehicle (endogenous mouse AR; quadriceps): 65%
- reduction of high molecular weight (aggregated) hAR100Q in LABC (human AR100Q; LABC, 11 weeks of age): did not induce degradation; also recorded: did not reach significance
- reduction of high molecular weight polyQ-AR (HMW hAR100Q) in quadriceps (human AR100Q; quadriceps): trended towards a reduction
